Data set [1] deals with ACE activity. Further details: method as in PMID 8512763. The conditions noted are these: eight infants with congestive heart failure, after four hours, single dose of 0.25 mg/kg enalapril maleate; cited from earlier work.
In data set [2] the target is T1, angiotensin-converting enzyme (ACE) (Homo sapiens, UniProt P12821).
T1 construct: from tissue; host or cells: in vivo in human subjects; ACE activity read indirectly from the plasma angiotensin II/angiotensin I ratio
Description: Percentage change in the angiotensin II/angiotensin I ratio four hours after the initial enalapril dose in children with heart failure. The format is in vivo. The conditions noted are these: eight children with heart failure, four hours after first dose, median 0.06 mg/kg enalapril maleate. As for the experimental part: In the pharmacokinetic bridging studies, a pharmacokinetic/pharmacodynamic profile was usually obtained in ACE inhibitor-naïve subjects at the initial dose visit, with pharmacokinetic samples collected before and 1, 2, 4, 6, and 12 h after enalapril orodispersible minitablet administration, as well as pharmacodynamic samples collected before and 4 h after administration. Alternatively, the pharmacokinetic/pharmacodynamic profile could also be obtained after reaching steady state at the optimal dose. In this case, the 12 h pharmacokinetic sample was omitted. Single pharmacokinetic and pharmacodynamic samples were collected in immediate succession during the remaining study visits. […]
For the simultaneous determination of several angiotensin peptides, including angiotensin I and angiotensin II, a validated multiplex liquid chromatography high-resolution mass spectrometry method was applied. Following precipitation and solid-phase extraction, the samples were analyzed using a Nexera XR liquid chromatography system (Shimadzu, Duisburg, Germany) coupled to a TripleTOF® 6600 mass spectrometer from AB Sciex (Concord, ON, Canada). […]
The percentage change in the angiotensin II/angiotensin I ratio was calculated in children with heart failure in whom an angiotensin II/angiotensin I ratio was available before the first dose of enalapril and four hours afterwards.

Details of data set [3]: method as in PMID 26256099. The conditions noted are these: parameters estimated in children extrapolated to an adult weight of 70 kg; cited from earlier work.
Data set [4] is described as follows: Serum enalaprilat concentrations in children with heart failure treated with enalapril orodispersible minitablets. The format is in vivo, human. The conditions noted are these: median first dose 0.06 mg/kg, median daily dose 0.11 mg/kg enalapril maleate. As for the experimental part:
For the studies, a dosing regimen with age- and weight-dependent recommended titration doses, target doses, and maximum doses was developed using physiologically based pharmacokinetic simulation (Table S2). The appropriate dosage for each subject was selected based on the judgment of the investigator. Daily doses ≤ 0.25 mg were administered once daily in the morning, and daily doses > 0.25 mg were administered in two equal divided doses in the morning and evening. The required number of orodispersible minitablets with 0.25 mg enalapril maleate or 1 mg enalapril maleate (now approved as Aqumeldi®, Proveca Pharma Limited, Dublin, Ireland) was placed in the patient’s cheek pouch. The orodispersible minitablets rapidly disintegrated into small, easily swallowable particles. To facilitate swallowing, a fluid of the patient’s/parent’s choice (e.g., breast milk, formula milk, cow milk, water) could be administered.
In the pharmacokinetic bridging studies, a pharmacokinetic/pharmacodynamic profile was usually obtained in ACE inhibitor-naïve subjects at the initial dose visit, with pharmacokinetic samples collected before and 1, 2, 4, 6, and 12 h after enalapril orodispersible minitablet administration, as well as pharmacodynamic samples collected before and 4 h after administration. […]

T1 sequence (P12821 30-1306): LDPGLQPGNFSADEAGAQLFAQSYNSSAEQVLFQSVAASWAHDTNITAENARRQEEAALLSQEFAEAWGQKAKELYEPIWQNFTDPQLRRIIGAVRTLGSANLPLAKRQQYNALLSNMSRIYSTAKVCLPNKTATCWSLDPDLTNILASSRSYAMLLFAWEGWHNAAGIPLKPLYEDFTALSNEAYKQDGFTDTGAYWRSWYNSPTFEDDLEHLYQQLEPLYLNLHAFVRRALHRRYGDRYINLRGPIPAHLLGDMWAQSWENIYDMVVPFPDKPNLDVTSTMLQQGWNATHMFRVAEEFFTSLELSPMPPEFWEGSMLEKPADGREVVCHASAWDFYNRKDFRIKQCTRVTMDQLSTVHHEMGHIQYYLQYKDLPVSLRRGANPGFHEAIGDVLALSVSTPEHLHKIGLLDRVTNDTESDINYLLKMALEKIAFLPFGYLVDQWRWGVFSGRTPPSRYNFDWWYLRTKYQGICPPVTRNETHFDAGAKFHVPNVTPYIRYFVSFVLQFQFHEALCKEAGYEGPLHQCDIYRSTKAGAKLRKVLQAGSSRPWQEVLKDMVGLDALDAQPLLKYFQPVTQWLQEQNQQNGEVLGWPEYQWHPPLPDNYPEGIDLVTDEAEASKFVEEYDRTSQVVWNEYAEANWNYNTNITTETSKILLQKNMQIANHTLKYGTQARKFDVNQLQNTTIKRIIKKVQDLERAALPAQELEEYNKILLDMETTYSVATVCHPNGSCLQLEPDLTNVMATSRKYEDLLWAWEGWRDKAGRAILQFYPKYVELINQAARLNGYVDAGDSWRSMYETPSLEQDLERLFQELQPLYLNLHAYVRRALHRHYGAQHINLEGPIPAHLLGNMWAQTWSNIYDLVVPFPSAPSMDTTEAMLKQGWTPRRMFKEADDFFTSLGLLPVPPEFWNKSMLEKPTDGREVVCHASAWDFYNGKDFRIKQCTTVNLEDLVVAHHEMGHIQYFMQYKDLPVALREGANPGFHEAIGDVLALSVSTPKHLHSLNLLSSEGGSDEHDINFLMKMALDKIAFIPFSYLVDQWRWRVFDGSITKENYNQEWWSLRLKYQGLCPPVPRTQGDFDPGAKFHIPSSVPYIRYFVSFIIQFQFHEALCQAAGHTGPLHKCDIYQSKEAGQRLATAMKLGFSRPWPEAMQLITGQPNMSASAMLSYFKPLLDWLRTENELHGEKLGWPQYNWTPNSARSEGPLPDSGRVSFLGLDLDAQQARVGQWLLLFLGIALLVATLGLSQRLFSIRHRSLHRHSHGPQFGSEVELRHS

Turning to `CCOC(=O)[C@H](CCc1ccccc1)N[C@@H](C)C(=O)N1CCC[C@H]1C(=O)O` [enalapril], the “mean inhibition of ACE activity” value in data set [1] is reported as 75.5%. Also, in data set [2], the “decrease in angiotensin II/angiotensin I ratio, median” value stood at 79.3% and the “decrease in angiotensin II/angiotensin I ratio, range” value was 21.4–92.7%.

Regarding `C[C@H](N[C@@H](CCc1ccccc1)C(=O)O)C(=O)N1CCC[C@H]1C(=O)O` [enalaprilat], in data set [3], the “apparent central volume of distribution of enalaprilat” value is reported as 168.8 L and the “apparent clearance of enalaprilat” value is recorded as 18.2 L/h. For the same molecule, the “highest measured enalaprilat concentration” value in data set [4] amounted to 18.3 µg/L.

The values above are taken from publication PMC12567347, “Angiotensin II/Angiotensin I Ratio as a New Pharmacodynamic Parameter for Population Modelling in Healthy Adults and Children with Heart Failure Treated with Enalapril” (Pharmaceutics, 2025).
